Source: patent publication US7112578B2, “Methods and compositions for treatment of inflammatory disease” (priority 2000, dated 2006)

Legend:
Format in all cases: in vivo, human
bilateral hip arthritis = assay: Treatment of bilateral hip arthritis with a CMO compound and doxycycline (case report)
Method: Doxycycline therapy was used for treatment of a middle aged person suffering from bilateral hip arthritis and experiencing severe pain despite increasing doses of NSAIDs. […] Cox-2 inhibitors were substituted for the NSAID agents with better results. However, over time, it was necessary to increase the doses of both agents to two to three times the initial dose in order to maintain adequate symptomatic relief. […] A CMO compound was added and the dosage of the other agents decreased to initial levels. […] The Cox-2 agent was discontinued with no increase in severity of symptoms.

knee arthritis = assay: Treatment of knee arthritis with a CMO compound and a tetracycline compound (case report)
Method: NSAID therapy was halted and tetracycline therapy was added.

[1] = system: ankle and knee arthritis pain; assay: Treatment of ankle and knee arthritis with a CMO compound and doxycycline (case report)
bee sting = assay: Relief of venom induced inflammation, topical treatment of bee stings (case report); settings: bee sting on one arm of the same individual
Method: Different bee stings on the same individual were treated by two different methods. A bee sting on one arm was treated with papain with mild relief from pain and swelling. A second bee sting on the other arm was treated with papain, a eutectic mixture of local anaesthetics (EMLA®) and a topical steroid (Kenalog). […] The improved relief from pain was apparent even after all other sensation had returned to normal in the area which received the EMLA® treatment.

[2] = dosage of doxycycline and Cox-2 agent decreased to initial levels

C[C@H]1c2cccc(O)c2C(=O)C2=C(O)[C@]3(O)C(=O)C(C(N)=O)=C(O)[C@@H](N(C)C)[C@@H]3[C@@H](O)[C@@H]21 [doxycycline, reference compound]
side effects at two to three times the initial dose of both agents (bilateral hip arthritis; doxycycline with Cox-2 inhibitor): dizziness, nausea and abdominal pain
side effect, doxycycline added to NSAIDs (bilateral hip arthritis; middle aged person): gastrointestinal upset was problematic

CCCC/C=C\CCCCCCCC(=O)OCCCCCCCCCCCCCCCC [CMO, cetyl myristoleate]
symptoms when the agent was discontinued (knee arthritis; despite increase in dose of the remaining agent): symptoms worsened
symptomatic relief of knee arthritis (knee arthritis; middle-aged, one patient): did not respond well
symptoms when the agent was discontinued ([1]; combination of CMO compound and doxycycline): Symptoms returned
relief of ankle and knee arthritis pain ([1]; female senior citizen, CMO therapy alone): no or minimal relief
side effects after a CMO compound was added (bilateral hip arthritis; [2]): side effects disappeared
symptomatic relief after a CMO compound was added (bilateral hip arthritis; [2]): improved symptomatic relief
symptoms when the agent was discontinued (bilateral hip arthritis; patient on CMO compound and doxycycline): worsening symptomatology

B1: papain (protein, UniProt P00784 134-345, looked up)
Papain: IPEYVDWRQKGAVTPVKNQGSCGSCWAFSAVVTIEGIIKIRTGNLNEYSEQELLDCDRRSYGCNGGYPWSALQLVAQYGIHYRNTYPYEGVQRYCRSREKGPYAAKTDGVRQVQPYNEGALLYSIANQPVSVVLEAAGKDFQLYRGGIFVGPCGNKVDHAVAAVGYGPNYILIKNSWGTGWGENGYIRIKRGTGNSYGVCGLYTSSFYPVKN
notes: proteolytic enzyme applied topically
relief from pain (bee sting): mild relief
swelling (bee sting): mild relief
